Article PMC12643354, “From Oxygen to Tellurium: The Impact of the Chalcogen on Nucleophilicities and Basicities of Isochalcogenourea Catalysts” (Angewandte Chemie (International Ed. in English), 2025)
Where “and” joins values, the source holds several entries; their conditions need not be identical. Identical values can stand only once. Like-named read-outs stand apart in the source and are kept apart here.

Legend:
[1] = dichloromethane, 20 °C; cited from earlier work
[2] = Lewis basicity LB from equilibrium constants (photometric titrations) with benzhydrylium ions as reference Lewis acids; assay type: physicochemical; design: key: Mayr Lewis basicity scale; LB from K and reference LA via Eq. (3); details: in dichloromethane, 20 °C
Experimental: (a) Lewis basicity. Previously, the Mayr group established a series of benzhydrylium ions as C‐centered Lewis acid references to construct a Lewis basicity scale in dichloromethane. Substituting experimentally determined equilibrium constants K (at 20 °C) and reported Lewis acidities LA for the benzhydrylium ions (Figure 7) in Equation (3) enables one to calculate the Lewis basicity (LB) of a Lewis base.^[ [121], [127] ^] (3) lgK(20^∘C)=LA+LB
The reversibility of the formation of adducts 19 (Equation (4)), which was also apparent in the kinetics by significant positive intercepts in several of the k obs versus [IChU] plots (Supporting Information), provided the opportunity to probe the thermodynamics of the C‐N bond‐forming reactions of IChUs with benzhydrylium ions as the reference Lewis acids in more detail.^[ [95] ^] (4) IChU+Ar2CH^+(18)⇌Ar2CH-IChU^+(19)
By assuming the validity of the Beer–Lambert law for dilute solutions, equilibrium constants K (L mol^−1) were determined in photometric titrations according to Equation (5) from the initial absorbance (A 0) of the benzhydrylium ions 18 and the absorbance at equilibrium (A, Equation 5), that is, after addition of a certain amount of an IChU.^[ [109], [110], [111], [112], [113], [114], [115], [119] ^] (5) K=[19]/[18]IChU=A0−A/AIChU

[3] = Mayr nucleophilicity parameters N and sN (benzhydrylium methodology, Mayr-Patz equation); assay type: physicochemical; details: 20 °C
[4] = as above; assay type: physicochemical; details: dichloromethane, 20 °C
From the text: (1) Mayr-Patz Equation: lgk20^∘C=sN(N+E)
The MPE is a linear‐free‐energy relationship that characterizes electrophiles by the electrophilicity parameter E and nucleophiles by the solvent‐dependent parameters N (nucleophilicity) and s N (sensitivity toward changes in the electrophile reactivity). By using the MPE (Equation (1)), the construction of comprehensive nucleophilicity and electrophilicity scales becomes possible, which facilitate the comparison of various classes of Lewis base organocatalysts.^[ [110], [111], [112], [113], [114], [115], [116], [117], [118], [119], [120] ^]
In order to systematically investigate the influence of the chalcogen atom on the nucleophilicity of DHPB‐derived IChUs (Ch = O, S, Se, and Te), we utilized Mayr's benzhydrylium methodology.^[ [107] ^]
Figure 4 illustrates the linear correlations of the second‐order rate constants (lg k 2) with the electrophilicities E of Ar2CH^+ (18), which makes it possible to determine the Mayr nucleophilicity parameters N (and s N) for the DHPB‐derived IChUs IU3, ITU3, ISeU3, and ITeU3. […]
Figure 4 Linear correlations of second‐order rate constants (lg k 2) for the reactions of IU3, ITU3, ISeU3, and ITeU3 with Ar2CH^+ 18 (in dichloromethane at 20 °C) with the electrophilicities E of 18. The slopes of the linear correlations equal the nucleophile‐dependent sensitivity parameter s N. Intercepts on the abscissa reflect the nucleophilicity parameter N (N = –E at lg k 2 = 0).

[5] = cited from earlier work
[6] = in acetonitrile, ref SI [25]-[30]

## CC(C)[C@@H]1CN2C(=N[C@@H]1c1ccccc1)Sc1ccccc12 [ITU5, HyperBTM]
[1]
  Nucleophilicity parameter N: 14.96
[2]
  Lewis basicity LB: 14.12

## CC(C)[C@@H]1CN2C(=N[C@@H]1c1ccccc1)[Se]c1ccccc12 [ISeU5, SeHyperBTM]
[3]; THF
  Nucleophile-specific sensitivity parameter sN: 0.77
  Nucleophilicity parameter N: 14.19
[3]; acetonitrile
  Nucleophile-specific sensitivity parameter sN: 0.57
  Nucleophilicity parameter N: 15.84
[4]
  Nucleophile-specific sensitivity parameter sN: 0.58
  Nucleophilicity parameter N: 16.11
[2]
  Lewis basicity LB: 14.75

## COc1ccc2c(c1)SC1=N[C@H](c3ccccc3)CN12 [MeO-ITU2, 7-MeO-BTM]
[4]
  Nucleophile-specific sensitivity parameter sN: 0.75
  Nucleophilicity parameter N: 13.15
[2]
  Lewis basicity LB: 15.22

## c1ccc([C@@H]2CN3C(=N2)Sc2ccccc23)cc1 [ITU2, benzotetramisole]
[4]
  Nucleophile-specific sensitivity parameter sN: 0.73
  Nucleophilicity parameter N: 13.06
[2]
  Lewis basicity LB: 14.88

## CC1(C)OC(=O)CC(=O)O1 [Meldrum’s acid]
[5]; in DMSO, ref SI [31]-[36]
  Literature pKa of indicators and acids: 7.3

## C1CCNC1 [Pyrrolidine]
[5]; in DMSO, ref SI [31]-[36]
  Literature pKa of indicators and acids: 11.06
[5]; [6]
  Literature pKa of indicators and acids: 19.56

## c1ccc([C@@H]2CN3C(=N2)[Te]c2ccccc23)cc1 [ITeU2, TeBTM]
[4]
  Nucleophile-specific sensitivity parameter sN: 0.66
  Nucleophilicity parameter N: 14.62
[2]
  Lewis basicity LB: 17.09

## c1ccc(C2CN3CCSC3=N2)cc1 (centres unmarked) [ITU1, tetramisole, reference compound]
[4]
  Nucleophile-specific sensitivity parameter sN: 0.68
  Nucleophilicity parameter N: 13.86
[2]
  Lewis basicity LB: 15.50

## CN(C)c1cccc2cccc(N(C)C)c12 [Proton Sponge]
[5]; in DMSO, ref SI [31]-[36]
  Literature pKa of indicators and acids: 7.47

## CN(C)c1ccncc1 [4-(dimethylamino)pyridine]
[5]; in DMSO, ref SI [31]-[36]
  Literature pKa of indicators and acids: 7.91
[5]; [6]
  Literature pKa of indicators and acids: 17.95

## Fc1ccc2c(c1)SC1=N[C@H](c3ccccc3)CN12 [F-ITU2, 7-F-BTM]
[4]
  Nucleophile-specific sensitivity parameter sN: 0.66
  Nucleophilicity parameter N: 13.45 and 13.46
[2]
  Lewis basicity LB: 14.18

## CC(C)[C@@H]1CN2C(=N[C@@H]1c1ccccc1)Oc1ccccc12 [IU5, OHyperBTM]
[4]
  Nucleophile-specific sensitivity parameter sN: 0.73
  Nucleophilicity parameter N: 13.01
[2]
  Lewis basicity LB: 12.42

## c1ccc([C@@H]2CN3C(=N2)[Se]c2ccccc23)cc1 [ISeU2, SeBTM]
[4]
  Nucleophile-specific sensitivity parameter sN: 0.63
  Nucleophilicity parameter N: 14.27
[2]
  Lewis basicity LB: 15.23

## c1ccc([C@@H]2CCN3C(=N2)Sc2ccccc23)cc1 [ITU4, HBTM]
[1]
  Nucleophilicity parameter N: 13.45
[2]
  Lewis basicity LB: 13.43

## c1ccc([C@@H]2CCN3C(=N2)[Se]c2ccccc23)cc1 [ISeU4, SeHBTM]
[4]
  Nucleophile-specific sensitivity parameter sN: 0.67
  Nucleophilicity parameter N: 14.42
[2]
  Lewis basicity LB: 14.03

## c1ccc(C2CN3CC[Se]C3=N2)cc1 (centres unmarked) [ISeU1, SeTM]
[4]
  Nucleophile-specific sensitivity parameter sN: 0.60
  Nucleophilicity parameter N: 15.26

## O=C(O)c1ccc([N+](=O)[O-])cc1[N+](=O)[O-] [2,4-Dinitrobenzoic acid]
[5]; in DMSO, ref SI [31]-[36]
  Literature pKa of indicators and acids: 6.5
